Laboratory results taken from US10463735B2, “Method and apparatus for adjusting corneal curvature through digital corneal crosslinking” (ZHEJIANG UNIVERSITY, priority 2016, dated 2019).

Test system: cornea
Experiment: Digital corneal crosslinking: photoinitiator solution dropped on the cornea, then selective local irradiation through a digital micromirror device
Assay type: in vivo
Experimental: A digital corneal crosslinking method to adjust the corneal curvature wherein a composition comprising a photoinitiator compound is administered to the corneal stromal of the subject, and the corneal is selectively and locally irradiated by utilizing digital micromirror device (DMD) controlled by a computer, whereby the corneal curvature is altered.
(§1) The epithelial tissue of an area of 7 mm diameter in the middle of the cornea was removed after superficial anesthesia. A dextran solution of 200 g/L with 1 g/L riboflavin was dropped to corneal surface in batches. The location of the riboflavin diffused into the corneal surface was observed by cobalt blue light of a slit lamp. Digital corneal crosslinking device was used to selectively irradiate the local area of the cornea. The light's wavelength is 365 nm, the irradiation area is shown in FIG. 2, the light power is 1.2 mW/cm^2, irradiation time is 5 minutes.
During irradiation process, a photoinitiator solution and superficial anesthesia were used to wash the corneal surface in phases. Antibiotic eye formulations were applied to the eye and corneal contact lens were used until the corneal epithelium was healed.
The epithelial tissue of an area of 7 mm diameter in the middle of the cornea was removed after superficial anesthesia. A dextran solution of 200 g/L with 1 g/L riboflavin sodium phosphate was dropped to corneal surface in batches. The location of the riboflavin diffused into the corneal surface was observed by cobalt blue light of a slit lamp. Digital corneal crosslinking device was used to selectively irradiate the local area of the cornea. The light's wavelength is 365 nm, the irradiation area is the same like that in example 1, the light power is 1.2 mW/cm^2, irradiation time is 5 minutes.
as §1, with “of 5-9” for “of 7”, “g/L eosin Y” for “g/L riboflavin”, “the eosin Y” for “the riboflavin”, “is 550” for “is 365”, “FIG. 3,” for “FIG. 2,”
During irradiation process, the eosin Y solution and superficial anesthesia were used to wash the corneal surface in phases. Antibiotic eye formulations were applied to the eye and corneal contact lens were used until the corneal epithelium was healed.
as §1, with “tissue” for “tissue of an area of 7 mm diameter in the middle”, “removed and a” for “removed after superficial anesthesia. A”, “FIG. 4,” for “FIG. 2,”
The epithelial tissue of the cornea was kept intact and a dextran solution of 200 g/L with 1.5 g/L EDTA sodium and 1.5 g/L riboflavin was dropped to corneal surface in batches. The location of the riboflavin diffused into the corneal surface was observed by cobalt blue light of a slit lamp. Digital corneal crosslinking device was used to selectively irradiate the local area of the cornea.

O=C([O-])c1ccccc1-c1c2cc(Br)c(=O)c(Br)c-2oc2c(Br)c([O-])c(Br)cc12.[Na+].[Na+] [eosin Y] was tested, and the corneal surface curvature (Example 3: epithelium removed (5-9 mm), dextran solution 200 g/L with 1 g/L eosin Y, 550 nm, irradiation area of FIG. 3, 1.2 mW/cm^2, 5 minutes) was “decreased”.
In the case of Cc1cc2nc3c(=O)[nH]c(=O)nc-3n(C[C@H](O)[C@H](O)[C@H](O)CO)c2cc1C [riboflavin], the corneal surface curvature (Example 1: epithelium removed (7 mm), dextran solution 200 g/L with 1 g/L riboflavin, 365 nm, irradiation area of FIG. 2, 1.2 mW/cm^2, 5 minutes) is reported as “increased”, the corneal curvature (Example 4: epithelium removed, dextran solution 200 g/L with 1 g/L riboflavin, 365 nm, irradiation area of FIG. 4, 1.2 mW/cm^2, 5 minutes) is reported as “locally changed” and the “result (corneal surface curvature)” value (Example 5: epithelium kept intact, dextran solution 200 g/L with 1.5 g/L EDTA sodium and 1.5 g/L riboflavin, 365 nm, irradiation area as example 1, 1.2 mW/cm^2, 10 minutes) is reported as “the same as example 1”.
In the case of Cc1cc2nc3c(=O)[nH]c(=O)nc-3n(C[C@H](O)[C@H](O)[C@H](O)COP(=O)(O)O)c2cc1C [riboflavin sodium phosphate], the corneal surface curvature (Example 2: epithelium removed (7 mm), dextran solution 200 g/L with 1 g/L riboflavin sodium phosphate, 365 nm, irradiation area as example 1, 1.2 mW/cm^2, 5 minutes) is reported as “the same as example 1”.
